Data from article PMC3656252 (The Journal of Biological Chemistry, 2013).
Blank lines part the entries; values can stand above or below the molecule they belong to. No end group written: not given here.

Assays:
DP8 [1] = assay: 1.7 milliunits of recombinant DP8 in assay buffer: 50 mM Tris, 100 mM NaCl, pH 8.0; conditions: human, 37 °C, up to 24 h
DP9 [2] = assay: 1.7 milliunits of recombinant DP9 in assay buffer: 50 mM Tris, 100 mM NaCl, pH 8.0; conditions: human, 37 °C, up to 24 h
DP8 [3] = conditions: cited from earlier work
Excerpt: (§1) In vitro, both DP8 and DP9 cleave the well known DP4 substrates neuropeptide Y(1–36), glucagon-like peptide-1(7–36), glucagon-like peptide-2(1–33), and peptide YY(1–36) ([18], [19]). […] However, as DP8 and DP9 are intracellular enzymes, it is unlikely that these secreted substrates will be of physiological relevance in vivo. Clues for their in vivo roles come from studies blocking DP ...

DP9 [4] = conditions: cited from earlier work
Excerpt: as §1

Molecule: APGQLALFSVSDKTGLVEFAR
cleaved bond (DP8 [1]): P-G
cleaved bond (DP9 [2]): P-G

Molecule: APKFPDSVEELRAAG
cleaved bond (DP8 [1]): P-K
cleaved bond (DP9 [2]): P-K

Molecule: APSVPAAEPEYPKGIR
cleaved bond (DP8 [1]): P-S, 1 h
cleaved bond (DP9 [2]): P-S, 1 h

Molecule: VSKPTLKEVVIVSATR
not cleaved (DP8 [1]): nc (not cleaved) after 24 h
not cleaved (DP9 [2]): nc (not cleaved) after 24 h

Molecule: glucagon-like peptide-1(7–36): well known DP4 substrate (HAEGTFTSDVSSYLEGQAAKEFIAWLVKGR; ends and bridges not checked; UniProt P01275 98-127, looked up)
Cleavage by DP8 in vitro (DP8 [3]): cleave
Cleavage by DP9 in vitro (DP9 [4]): cleave

Molecule: glucagon-like peptide-2(1–33): well known DP4 substrate (HADGSFSDEMNTILDNLAARDFINWLIQTKITD; Glucagon-like peptide 2; UniProt P01275 146-178, looked up)
Cleavage by DP8 in vitro (DP8 [3]): cleave
Cleavage by DP9 in vitro (DP9 [4]): cleave

Molecule: interferon-γ-inducible protein: chemokine, known DP4 substrate
DP8 cleavage of chemokines in vitro (DP8 [3]): cleavage

Molecule: neuropeptide Y(1–36): well known DP4 substrate
Cleavage by DP8 in vitro (DP8 [3]): cleave
Cleavage by DP9 in vitro (DP9 [4]): cleave

Molecule: peptide YY(1–36): well known DP4 substrate
Cleavage by DP8 in vitro (DP8 [3]): cleave
Cleavage by DP9 in vitro (DP9 [4]): cleave

B1: interferon-inducible T cell α-chemoattractant: chemokine, known DP4 substrate (protein, UniProt O14625 22-94, looked up)
C-X-C motif chemokine 11: FPMFKRGRCLCIGPGVKAVKVADIEKASIMYPSNNCDKIEVIITLKENKGQRCLNPKSKQARLIIKKVERKNF
DP8 cleavage of chemokines in vitro (DP8 [3]): cleavage

Other lines, results leading:

not cleaved (DP8 [1]): nc (not cleaved) after 24 h
not cleaved (DP9 [2]): nc (not cleaved) after 24 h
Molecule: AEVKKPAAAAAPGTAEKLSP

cleaved bond (DP8 [1]): P-A
cleaved bond (DP9 [2]): P-A
Molecule: APAEILNGKEISAQIR

cleaved bond (DP8 [1]): P-L
cleaved bond (DP9 [2]): P-L
Molecule: APLDLDKYVEIARLCK

cleaved bond (DP8 [1]): P-V
cleaved bond (DP9 [2]): P-V
Molecule: APVLSKDSADIESILALNPR

not cleaved (DP8 [1]): nc (not cleaved) after 24 h
not cleaved (DP9 [2]): nc (not cleaved) after 24 h
Molecule: ASGANFEYIIAEKRGK

not cleaved (DP8 [1]): nc (not cleaved) after 24 h
not cleaved (DP9 [2]): nc (not cleaved) after 24 h
Molecule: ATAKGIAIGIDLGTTYSCVG

not cleaved (DP8 [1]): nc (not cleaved) after 24 h
not cleaved (DP9 [2]): nc (not cleaved) after 24 h
Molecule: DDEVDVDGTVEEDLGKSR

cleaved bond (DP8 [1]): P-A, 1 h
cleaved bond (DP9 [2]): P-A, 1 h
Molecule: EPAVYFKEQFLDGDGWTSR

cleaved bond (DP8 [1]): P-K
cleaved bond (DP9 [2]): P-K
Molecule: PPKKGGDGIKPPPIIGR

cleaved bond (DP8 [1]): P-A
cleaved bond (DP9 [2]): P-A
Molecule: SPADLPKSWDWRNVDG
